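Grown in 96-well plates, cells were treated for 48 hours with each compound at five concentrations. Insufficient inhibition: endpoint recorded as highest concentration tested. At the GI50, growth is halved. Definition used: TGI = concentration required for complete inhibition of growth.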
Key:
Test in all cases: NCI anticancer screen, dose series, 48 h
SF-268 CNS = test system: SF-268 CNS
A498 renal = test system: A498 renal
RXF 393 renal = test system: RXF 393 renal
RPMI-8226 leukemia = test system: RPMI-8226 leukemia
IGROV1 ovarian = test system: IGROV1 ovarian
HT29 colon = test system: HT29 colon
OVCAR-5 ovarian = test system: OVCAR-5 ovarian
NCI-H460 lung = test system: NCI-H460 lung
SW-620 colon = test system: SW-620 colon
SK-MEL-2 melanoma = test system: SK-MEL-2 melanoma
M14 melanoma = test system: M14 melanoma
T-47D breast = test system: T-47D breast
SNB-19 CNS = test system: SNB-19 CNS
OVCAR-4 ovarian = test system: OVCAR-4 ovarian
MOLT-4 leukemia = test system: MOLT-4 leukemia
HOP-62 NSCLC = test system: HOP-62 NSCLC
HCC-2998 colon = test system: HCC-2998 colon
BT-549 breast = test system: BT-549 breast
TK-10 renal = test system: TK-10 renal
NCI/ADR-RES ovarian = test system: NCI/ADR-RES ovarian
HCT-116 colon = test system: HCT-116 colon
SF-539 CNS = test system: SF-539 CNS
HS 578T breast = test system: HS 578T breast
OVCAR-8 ovarian = test system: OVCAR-8 ovarian
MDA-MB-435 = test system: MDA-MB-435
UACC-62 melanoma = test system: UACC-62 melanoma
CCRF-CEM leukemia = test system: CCRF-CEM leukemia
SR leukemia = test system: SR leukemia
MALME-3M melanoma = test system: MALME-3M melanoma
COLO 205 colon = test system: COLO 205 colon
NCI-H226 lung = test system: NCI-H226 lung
PC-3 prostate = test system: PC-3 prostate
SK-OV-3 ovarian = test system: SK-OV-3 ovarian
KM12 colon = test system: KM12 colon
NCI-H522 lung = test system: NCI-H522 lung
SK-MEL-28 melanoma = test system: SK-MEL-28 melanoma
A549 NSCLC = test system: A549 NSCLC
NCI-H23 lung = test system: NCI-H23 lung
MDA-MB-468 breast = test system: MDA-MB-468 breast
OVCAR-3 ovarian = test system: OVCAR-3 ovarian
SNB-75 CNS = test system: SNB-75 CNS
786-0 renal = test system: 786-0 renal
UO-31 renal = test system: UO-31 renal
CAKI-1 renal = test system: CAKI-1 renal
HL-60(TB) leukemia = test system: HL-60(TB) leukemia
EKVX NSCLC = test system: EKVX NSCLC
LOX IMVI melanoma = test system: LOX IMVI melanoma
UACC-257 melanoma = test system: UACC-257 melanoma
SK-MEL-5 melanoma = test system: SK-MEL-5 melanoma
U251 CNS = test system: U251 CNS
MCF7 breast = test system: MCF7 breast
HOP-92 NSCLC = test system: HOP-92 NSCLC
SN12C renal = test system: SN12C renal
MDA-MB-231 breast = test system: MDA-MB-231 breast
K-562 leukemia = test system: K-562 leukemia
HCT-15 colon = test system: HCT-15 colon
SF-295 CNS = test system: SF-295 CNS
ACHN renal = test system: ACHN renal
DU-145 prostate = test system: DU-145 prostate

Question: How did the GI50 (SF-268 CNS) turn out when COc1ccccc1NC(=O)N/N=C/c1c[nH]c2ccccc12 was run?
Answer: 3.06 µM

Question: What about the TGI (SF-268 CNS) of the same compound?
Answer: 20.6 µM

Question: And the GI50 (A498 renal)?
Answer: 10.1 µM

Question: What about the TGI (A498 renal) of the same compound?
Answer: 22.4 µM

Question: What about the GI50 (RXF 393 renal) of the same compound?
Answer: 1.66 µM

Question: What about the TGI (RXF 393 renal) of the same compound?
Answer: 6.45 µM

Question: And the GI50 (RPMI-8226 leukemia)?
Answer: 1.39 µM

Question: What about the TGI (RPMI-8226 leukemia) of the same compound?
Answer: 6.09 µM

Question: And the GI50 (IGROV1 ovarian)?
Answer: 1.66 µM

Question: And the TGI (IGROV1 ovarian)?
Answer: 20.5 µM

Question: What about the GI50 (HT29 colon) of the same compound?
Answer: 0.427 µM

Question: And the TGI (HT29 colon)?
Answer: 10.6 µM

Question: What about the GI50 (OVCAR-5 ovarian) of the same compound?
Answer: 2.72 µM

Question: And the TGI (OVCAR-5 ovarian)?
Answer: 15.5 µM

Question: What about the GI50 (NCI-H460 lung) of the same compound?
Answer: 0.961 µM

Question: What about the TGI (NCI-H460 lung) of the same compound?
Answer: 12.6 µM

Question: And the GI50 (SW-620 colon)?
Answer: 0.479 µM

Question: And the TGI (SW-620 colon)?
Answer: 18.5 µM

Question: What about the GI50 (SK-MEL-2 melanoma) of the same compound?
Answer: 0.67 µM

Question: And the TGI (SK-MEL-2 melanoma)?
Answer: 4.92 µM

Question: What about the GI50 (M14 melanoma) of the same compound?
Answer: 0.365 µM

Question: What about the TGI (M14 melanoma) of the same compound?
Answer: 10.8 µM

Question: And the GI50 (T-47D breast)?
Answer: 1.04 µM

Question: And the TGI (T-47D breast)?
Answer: > 100 µM

Question: And the GI50 (SNB-19 CNS)?
Answer: 2.58 µM

Question: And the TGI (SNB-19 CNS)?
Answer: 16.1 µM

Question: What about the GI50 (OVCAR-4 ovarian) of the same compound?
Answer: 4.34 µM

Question: And the TGI (OVCAR-4 ovarian)?
Answer: 19.9 µM

Question: What about the GI50 (MOLT-4 leukemia) of the same compound?
Answer: 0.381 µM

Question: What about the TGI (MOLT-4 leukemia) of the same compound?
Answer: 11.9 µM

Question: And the GI50 (HOP-62 NSCLC)?
Answer: 3.01 µM

Question: What about the TGI (HOP-62 NSCLC) of the same compound?
Answer: 18.9 µM

Question: And the GI50 (HCC-2998 colon)?
Answer: 1.42 µM

Question: What about the TGI (HCC-2998 colon) of the same compound?
Answer: 14.2 µM

Question: What about the GI50 (BT-549 breast) of the same compound?
Answer: 0.194 µM

Question: And the TGI (BT-549 breast)?
Answer: 4.69 µM

Question: And the GI50 (TK-10 renal)?
Answer: 4.73 µM

Question: What about the TGI (TK-10 renal) of the same compound?
Answer: 23.8 µM

Question: And the GI50 (NCI/ADR-RES ovarian)?
Answer: 0.299 µM

Question: And the TGI (NCI/ADR-RES ovarian)?
Answer: 1.31 µM

Question: What about the GI50 (HCT-116 colon) of the same compound?
Answer: 0.405 µM

Question: What about the TGI (HCT-116 colon) of the same compound?
Answer: 3.61 µM

Question: And the GI50 (SF-539 CNS)?
Answer: 0.704 µM

Question: What about the TGI (SF-539 CNS) of the same compound?
Answer: 2.86 µM

Question: And the GI50 (HS 578T breast)?
Answer: 3.05 µM

Question: What about the TGI (HS 578T breast) of the same compound?
Answer: 25.7 µM

Question: And the GI50 (OVCAR-8 ovarian)?
Answer: 2.12 µM

Question: What about the TGI (OVCAR-8 ovarian) of the same compound?
Answer: 13.9 µM

Question: And the GI50 (MDA-MB-435)?
Answer: 0.226 µM

Question: And the TGI (MDA-MB-435)?
Answer: 0.647 µM

Question: And the GI50 (UACC-62 melanoma)?
Answer: 0.473 µM

Question: And the TGI (UACC-62 melanoma)?
Answer: 12.5 µM

Question: What about the GI50 (CCRF-CEM leukemia) of the same compound?
Answer: 0.379 µM

Question: What about the TGI (CCRF-CEM leukemia) of the same compound?
Answer: 12.9 µM

Question: And the GI50 (SR leukemia)?
Answer: 0.215 µM

Question: What about the TGI (SR leukemia) of the same compound?
Answer: 12.4 µM

Question: What about the GI50 (MALME-3M melanoma) of the same compound?
Answer: 0.559 µM

Question: And the TGI (MALME-3M melanoma)?
Answer: 16.9 µM

Question: What about the GI50 (COLO 205 colon) of the same compound?
Answer: 0.766 µM

Question: What about the TGI (COLO 205 colon) of the same compound?
Answer: 4.44 µM

Question: What about the GI50 (NCI-H226 lung) of the same compound?
Answer: 4.11 µM

Question: And the TGI (NCI-H226 lung)?
Answer: 23 µM

Question: What about the GI50 (PC-3 prostate) of the same compound?
Answer: 1.6 µM

Question: And the TGI (PC-3 prostate)?
Answer: 14.7 µM

Question: What about the GI50 (SK-OV-3 ovarian) of the same compound?
Answer: 2.48 µM

Question: What about the TGI (SK-OV-3 ovarian) of the same compound?
Answer: 15.4 µM

Question: What about the GI50 (KM12 colon) of the same compound?
Answer: 0.574 µM

Question: What about the TGI (KM12 colon) of the same compound?
Answer: 11 µM

Question: What about the GI50 (NCI-H522 lung) of the same compound?
Answer: 0.177 µM

Question: And the TGI (NCI-H522 lung)?
Answer: 0.428 µM

Question: And the GI50 (SK-MEL-28 melanoma)?
Answer: 1.57 µM

Question: And the TGI (SK-MEL-28 melanoma)?
Answer: 17.6 µM

Question: What about the GI50 (A549 NSCLC) of the same compound?
Answer: 1.22 µM

Question: And the TGI (A549 NSCLC)?
Answer: 18.2 µM

Question: What about the GI50 (NCI-H23 lung) of the same compound?
Answer: 1.45 µM

Question: What about the TGI (NCI-H23 lung) of the same compound?
Answer: 10.8 µM

Question: And the GI50 (MDA-MB-468 breast)?
Answer: 0.236 µM

Question: And the TGI (MDA-MB-468 breast)?
Answer: 2.74 µM

Question: And the GI50 (OVCAR-3 ovarian)?
Answer: 0.451 µM

Question: And the TGI (OVCAR-3 ovarian)?
Answer: 5.47 µM

Question: What about the GI50 (SNB-75 CNS) of the same compound?
Answer: 3.43 µM

Question: What about the TGI (SNB-75 CNS) of the same compound?
Answer: 20.9 µM

Question: What about the GI50 (786-0 renal) of the same compound?
Answer: 1.23 µM

Question: And the TGI (786-0 renal)?
Answer: 3.77 µM

Question: What about the GI50 (UO-31 renal) of the same compound?
Answer: 3.28 µM

Question: What about the TGI (UO-31 renal) of the same compound?
Answer: 18.4 µM

Question: What about the GI50 (CAKI-1 renal) of the same compound?
Answer: 2.53 µM

Question: What about the TGI (CAKI-1 renal) of the same compound?
Answer: 13.7 µM

Question: And the GI50 (HL-60(TB) leukemia)?
Answer: 0.304 µM

Question: What about the TGI (HL-60(TB) leukemia) of the same compound?
Answer: 3.51 µM

Question: What about the GI50 (EKVX NSCLC) of the same compound?
Answer: 2.2 µM

Question: What about the TGI (EKVX NSCLC) of the same compound?
Answer: 13.9 µM

Question: And the GI50 (LOX IMVI melanoma)?
Answer: 0.803 µM

Question: What about the TGI (LOX IMVI melanoma) of the same compound?
Answer: 14.9 µM

Question: And the GI50 (UACC-257 melanoma)?
Answer: 10.7 µM

Question: What about the TGI (UACC-257 melanoma) of the same compound?
Answer: 34.8 µM

Question: And the GI50 (SK-MEL-5 melanoma)?
Answer: 1.04 µM

Question: And the TGI (SK-MEL-5 melanoma)?
Answer: 5.52 µM

Question: What about the GI50 (U251 CNS) of the same compound?
Answer: 1.45 µM

Question: What about the TGI (U251 CNS) of the same compound?
Answer: 12.5 µM

Question: What about the GI50 (MCF7 breast) of the same compound?
Answer: 0.423 µM

Question: And the TGI (MCF7 breast)?
Answer: 12.3 µM

Question: What about the GI50 (HOP-92 NSCLC) of the same compound?
Answer: 1.85 µM

Question: And the TGI (HOP-92 NSCLC)?
Answer: 10.4 µM

Question: And the GI50 (SN12C renal)?
Answer: 1.1 µM

Question: What about the TGI (SN12C renal) of the same compound?
Answer: 12.1 µM

Question: What about the GI50 (MDA-MB-231 breast) of the same compound?
Answer: 0.824 µM

Question: What about the TGI (MDA-MB-231 breast) of the same compound?
Answer: 12.6 µM

Question: And the GI50 (K-562 leukemia)?
Answer: 0.229 µM

Question: And the TGI (K-562 leukemia)?
Answer: 16.4 µM

Question: And the GI50 (HCT-15 colon)?
Answer: 0.348 µM

Question: And the TGI (HCT-15 colon)?
Answer: 12 µM

Question: What about the GI50 (SF-295 CNS) of the same compound?
Answer: 0.816 µM

Question: And the TGI (SF-295 CNS)?
Answer: 5.9 µM

Question: What about the GI50 (ACHN renal) of the same compound?
Answer: 3.13 µM

Question: And the TGI (ACHN renal)?
Answer: 15.8 µM

Question: And the GI50 (DU-145 prostate)?
Answer: 2.56 µM

Question: What about the TGI (DU-145 prostate) of the same compound?
Answer: 12.4 µM

Reference: PubChem BioAssay (NCI)
